Experimental data reported in patent US8901165B2, “Alkoxylated glycerol acetals and their derivatives” (Cognis IP Management GmbH, priority 2009, dated 2014).

Tests used:
[1] = Foam potential, SITA foam tester R-2000; format: physicochemical; details: 0.1% aqueous solution/dispersion
Protocol: (§1) Foam properties and surface tension of various alkoxylated glycerol acetals were compared with data obtained from conventional fatty alcohol alkoxylates at 0.1 and 0.25% b.w. concentration, respectively. Foam potential was tested with SITA foam tester R-2000, available from SITA Messtechnik GmbH, Gostritzer Str. 61-63, 01217 Dresden, Germany. Dynamic surface tension was determined with the tensiometer SITA science line t60, ibid.

[2] = Dynamic and quasi-static surface tension, tensiometer SITA science line t60; format: physicochemical; details: for Surface Tension at 0.1 Hz: bubble frequency 0.1 Hz (quasi-static); for Surface Tension at 10 Hz: bubble frequency 10 Hz (dynamic)
Text: Quasi-Static or equilibrium surface tension at an air-liquid interface can be determined by the Du Noüy ring method, the Wilhelmy plate or the like. […] To avoid such problems, a dynamic method is used but the frequency is reduced to 0.1 Hz or less, thus close enough to equilibrium conditions. […] The products therefore fulfill the complex profile as explained above perfectly.
as §1

[3] = 0.1% aqueous solution/dispersion
[4] = 0.25% aqueous solution/dispersion

Foam after 1 min [1] [mL]	Foam after 5 min [1] [mL]	Surface Tension at 0.1 Hz [2, 3] [mN/m]	Surface Tension at 10 Hz [2, 3] [mN/m]	Surface Tension at 0.1 Hz [2, 4] [mN/m]	Surface Tension at 10 Hz [2, 4] [mN/m]	Substance
190	170	26	40	–	–	Decanol + 5EO [Example C2, reference compound]
–	–	–	–	26	33	Decanol + 5EO [Example C4, reference compound]
225	210	27	40	–	–	Isodecanol + 6EO [Example C1, reference compound]
–	–	–	–	27	34	Isodecanol + 6EO [Example C3, reference compound]
0	0	31	43	–	–	iso-nonyl glycerol acetal+3PO+3EO [Example 5]
–	–	–	–	29	36	iso-nonyl glycerol acetal+3PO+3EO [Example 13]
100	80	30	52	–	–	n-decyl glycerol acetal+4PO+4EO [Example 2]
120	110	31	50	–	–	n-decyl glycerol acetal+4PO+4EO [Example 3]
–	–	–	–	32	38	n-decyl glycerol acetal+4PO+4EO [Example 10]
–	–	–	–	31	44	n-decyl glycerol acetal+4PO+4EO [Example 11]
30	25	32	44	–	–	n-octyl glycerol acetal+4PO+4EO [Example 1]
–	–	–	–	32	39	n-octyl glycerol acetal+4PO+4EO [Example 9]
